# From patent US20150010928A1, “MEANS AND METHODS FOR ASSESSING AN ENDOCRINE DISEASE OR DISORDER” (priority 2012, published 2015)
# Marks after values point to notes of the source that are not given here.
# What was measured:
# [1] = test system: female rats; experiment: Plasma metabolite profiling (GC-MS, LC-MS, SPE-LC-MS) in female rats dosed once daily over 28 days (OECD 407); assay type: in vivo, rat; conditions: high dose, Table 14a
# Protocol: Each dose group in the studies consisted of five rats per sex. Additional groups of each 5 male and female animals served as controls. […] All animals of the animal population were kept under the same constant temperature (20-24±3° C.) and the same constant humidity (30-70%). The animals of the animal population were fed ad libitum. The food to be used was essentially free of chemical or microbial contaminants. Drinking water was also offered ad libitum. Accordingly, the water was free of chemical and microbial contaminants as laid down in the European Drinking Water Directive 98/83/EG. The illumination period was 12 hours light followed by 12 hours darkness (12 hours light, from 6:00 to 18:00, and 12 hours darkness, from 18:00 to 6:00). […] The test substances (compounds) in the Tables 1 to 17 below were dosed and administered as described in the Table 18.
# In the morning of day 7, 14, and 28, blood was taken from the retroorbital venous plexus from fasted anaesthetized animals. From each animal, 1 ml of blood was collected with EDTA as anticoagulant. The samples were centrifuged for generation of plasma. All plasma samples were covered with a N2 atmosphere and then stored at −80° C. until analysis.
# For mass spectrometry-based metabolite profiling analyses plasma samples were extracted and a polar and a non-polar (lipid) fraction was obtained. For GC-MS analysis, the non-polar fraction was treated with methanol under acidic conditions to yield the fatty acid methyl esters. Both fractions were further derivatised with O-methyl-hydroxyamine hydrochloride and pyridine to convert Oxogroups to O-methyloximes and subsequently with a silylating agent before analysis. In LC-MS analysis, both fractions were reconstituted in appropriate solvent mixtures. HPLC was performed by gradient elution on reversed phase separation columns. Mass spectrometric detection which allows target and high sensitivity MRM (Multiple Reaction Monitoring) profiling in parallel to a full screen analysis was applied as described in WO2003073464.
# Steroids and their metabolites were measured by online SPE-LC-MS (Solid phase extraction-LC-MS).
# Following comprehensive analytical validation steps, the data for each analyte were normalized against data from pool samples. These samples were run in parallel through the whole process to account for process variability. The significance of treatment group values specific for sex, treatmentduration and metabolite was determined by comparing means of the treated groups to the means of the respective untreated control groups using WELCH-test and quantified with treatment ratios versus control and p-values.
# The identification of the most important biomarkers per toxicity pattern was done by a ranking of the analytes in the tables below. Therefore the metabolic changes in reference treatments of a given pattern (shown in the table) were compared with changes of the same metabolite in other unrelated treatments. […] The maximum absolute value of the respective TVALUE was taken to indicate the most important metabolite for the pattern.
# [2] = test system: male rats; experiment: Plasma metabolite profiling (GC-MS, LC-MS, SPE-LC-MS) in male rats dosed once daily over 28 days (OECD 407); assay type: in vivo, rat; conditions: high dose; for Cholesterol / Choline plasmalogen No 02 / Lignoceric acid (C24:0) / Sphingomyelin (d18:1, C16:0) / Sphingomyelin (d18:2, C16:0) / erythro-Sphingosine (d18:1): Table 14b
# How it was run: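 Metabolites were measured by GC-MS (derivatised) and reversed-phase LC-MS, with steroids by online SPE-LC-MS, in plasma drawn from fasted rats on days 7, 14 and 28 of once-daily dosing (5/sex/group). Values are ratios versus sex-matched untreated controls, normalized to pool samples, with Welch-test p-values.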
smiles,measurement,setting,value
CCC(=O)Oc1ccc(/C(CC)=C(\CC)c2ccc(OC(=O)CC)cc2)cc1 [Diethylstilboestrol dipropionate],Cholesterol,[1]; f7,0.48 *
same,Choline plasmalogen No 02,[1]; f7,0.7 *
same,Lignoceric acid (C24:0),[1]; f7,0.49 *
same,"Sphingomyelin (d18:1, C16:0)",[1]; f7,0.72 *
same,"Sphingomyelin (d18:2, C16:0)",[1]; f7,0.67 *
same,erythro-Sphingosine (d18:1),[1]; f7,0.38 *
same,Cholesterol,[1]; f14,0.69 *
same,Choline plasmalogen No 02,[1]; f14,0.75 *
same,Lignoceric acid (C24:0),[1]; f14,0.6 *
same,"Sphingomyelin (d18:1, C16:0)",[1]; f14,0.59^
same,"Sphingomyelin (d18:2, C16:0)",[1]; f14,0.71 *
same,erythro-Sphingosine (d18:1),[1]; f14,0.67 *
same,Cholesterol,[1]; f28,0.58 *
same,Choline plasmalogen No 02,[1]; f28,0.67 *
same,Lignoceric acid (C24:0),[1]; f28,0.59 *
same,"Sphingomyelin (d18:1, C16:0)",[1]; f28,0.73 *
same,"Sphingomyelin (d18:2, C16:0)",[1]; f28,0.58 *
same,erythro-Sphingosine (d18:1),[1]; f28,0.46 *
CC/C(=C(\c1ccccc1)c1ccc(OCCN(C)C)cc1)c1ccccc1 [Tamoxifen],Cholesterol,[2]; m7,0.45
same,Choline plasmalogen No 02,[2]; m7,0.59
same,Lignoceric acid (C24:0),[2]; m7,0.49
same,"Sphingomyelin (d18:1, C16:0)",[2]; m7,0.41
same,"Sphingomyelin (d18:2, C16:0)",[2]; m7,0.49
same,erythro-Sphingosine (d18:1),[2]; m7,0.28
same,Cholesterol,[2]; m14,0.51
same,Choline plasmalogen No 02,[2]; m14,0.6
same,Lignoceric acid (C24:0),[2]; m14,0.63
same,"Sphingomyelin (d18:1, C16:0)",[2]; m14,0.63
same,"Sphingomyelin (d18:2, C16:0)",[2]; m14,0.52
same,erythro-Sphingosine (d18:1),[2]; m14,0.41
same,Cholesterol,[2]; m28,0.51
same,Choline plasmalogen No 02,[2]; m28,0.68
same,Lignoceric acid (C24:0),[2]; m28,0.63
same,"Sphingomyelin (d18:1, C16:0)",[2]; m28,0.6
same,"Sphingomyelin (d18:2, C16:0)",[2]; m28,0.6
same,erythro-Sphingosine (d18:1),[2]; m28,0.42
CC1(C)CCC(=Cc2ccc(Cl)cc2)C1(O)Cn1cncn1 (stereo not shown) [Triticonazole],"Glycerol, polar fraction","[2]; m7, male rats, Table 16",1.03
same,Testosterone,"[2]; m7, male rats, Table 16",0.55 *
same,Testosterone,"[2]; m14, male rats, Table 16",1.03
same,Testosterone,"[2]; m28, male rats, Table 16",0.23 *
C=CC1(C)OC(=O)N(c2cc(Cl)cc(Cl)c2)C1=O (stereo not shown) [Vinclozolin],Testosterone,"[2]; m7, Table 11a",1.41^
same,Testosterone,"[2]; m14, Table 11a",2.44 *
same,Testosterone,"[2]; m28, Table 11a",1.09^
